According to PubChem BioAssay (NCI):
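Growth conditions: 96-well plates. Treatment: test compound, 48 hours, 5 concentrations. Analysis: linear interpolation between bracketing concentrations; unreached endpoints set to highest concentration. The concentration for 50% growth inhibition is given as GI50. Definition used: TGI = concentration required for complete inhibition of growth.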

Legend:
Assay in all cases: growth of human tumour cells (NCI), 48 h
OVCAR-3 ovarian = system: OVCAR-3 ovarian
CAKI-1 renal = system: CAKI-1 renal
HL-60(TB) leukemia = system: HL-60(TB) leukemia
RXF 393 renal = system: RXF 393 renal
BT-549 breast = system: BT-549 breast
UO-31 renal = system: UO-31 renal
SF-268 CNS = system: SF-268 CNS
KM12 colon = system: KM12 colon
HOP-62 NSCLC = system: HOP-62 NSCLC
M14 melanoma = system: M14 melanoma
HT29 colon = system: HT29 colon
HCC-2998 colon = system: HCC-2998 colon
MALME-3M melanoma = system: MALME-3M melanoma
CCRF-CEM leukemia = system: CCRF-CEM leukemia
EKVX NSCLC = system: EKVX NSCLC
U251 CNS = system: U251 CNS
MCF7 breast = system: MCF7 breast
NCI/ADR-RES ovarian = system: NCI/ADR-RES ovarian
OVCAR-8 ovarian = system: OVCAR-8 ovarian
SN12C renal = system: SN12C renal
OVCAR-5 ovarian = system: OVCAR-5 ovarian
IGROV1 ovarian = system: IGROV1 ovarian
UACC-257 melanoma = system: UACC-257 melanoma
ACHN renal = system: ACHN renal
MDA-N = system: MDA-N
MDA-MB-231 breast = system: MDA-MB-231 breast
SF-539 CNS = system: SF-539 CNS
NCI-H23 lung = system: NCI-H23 lung
SW-620 colon = system: SW-620 colon
SNB-19 CNS = system: SNB-19 CNS
MDA-MB-435 = system: MDA-MB-435
HCT-116 colon = system: HCT-116 colon
SK-MEL-5 melanoma = system: SK-MEL-5 melanoma
LOX IMVI melanoma = system: LOX IMVI melanoma
NCI-H226 lung = system: NCI-H226 lung
T-47D breast = system: T-47D breast
K-562 leukemia = system: K-562 leukemia
HS 578T breast = system: HS 578T breast
A549 NSCLC = system: A549 NSCLC
COLO 205 colon = system: COLO 205 colon
A498 renal = system: A498 renal
SF-295 CNS = system: SF-295 CNS
SK-MEL-28 melanoma = system: SK-MEL-28 melanoma
786-0 renal = system: 786-0 renal
DU-145 prostate = system: DU-145 prostate
SNB-75 CNS = system: SNB-75 CNS
RPMI-8226 leukemia = system: RPMI-8226 leukemia
HCT-15 colon = system: HCT-15 colon
SR leukemia = system: SR leukemia
NCI-H460 lung = system: NCI-H460 lung
MOLT-4 leukemia = system: MOLT-4 leukemia
OVCAR-4 ovarian = system: OVCAR-4 ovarian
PC-3 prostate = system: PC-3 prostate
TK-10 renal = system: TK-10 renal
NCI-H522 lung = system: NCI-H522 lung
HOP-92 NSCLC = system: HOP-92 NSCLC
SK-OV-3 ovarian = system: SK-OV-3 ovarian
SK-MEL-2 melanoma = system: SK-MEL-2 melanoma
UACC-62 melanoma = system: UACC-62 melanoma

SMILES: O=C1CC(C(O)C(O)C(O)CO)CC(=O)N1 (stereo not drawn)
- TGI (OVCAR-3 ovarian): > 100 µM
- TGI (CAKI-1 renal): > 100 µM
- TGI (HL-60(TB) leukemia): > 100 µM
- TGI (RXF 393 renal): > 100 µM
- TGI (BT-549 breast): > 100 µM
- TGI (UO-31 renal): > 100 µM
- TGI (SF-268 CNS): > 100 µM
- TGI (KM12 colon): > 100 µM
- TGI (HOP-62 NSCLC): > 100 µM
- TGI (M14 melanoma): > 100 µM
- TGI (HT29 colon): > 100 µM
- TGI (HCC-2998 colon): > 100 µM
- TGI (MALME-3M melanoma): > 100 µM
- TGI (CCRF-CEM leukemia): > 100 µM
- TGI (EKVX NSCLC): > 100 µM
- TGI (U251 CNS): > 100 µM
- TGI (MCF7 breast): > 100 µM
- TGI (NCI/ADR-RES ovarian): > 100 µM
- TGI (OVCAR-8 ovarian): > 100 µM
- TGI (SN12C renal): > 100 µM
- TGI (OVCAR-5 ovarian): > 100 µM
- TGI (IGROV1 ovarian): > 100 µM
- TGI (UACC-257 melanoma): > 100 µM
- TGI (ACHN renal): > 100 µM
- TGI (MDA-N): > 100 µM
- TGI (MDA-MB-231 breast): > 100 µM
- TGI (SF-539 CNS): > 100 µM
- TGI (NCI-H23 lung): > 100 µM
- TGI (SW-620 colon): > 100 µM
- TGI (SNB-19 CNS): > 100 µM
- TGI (MDA-MB-435): > 100 µM
- TGI (HCT-116 colon): > 100 µM
- TGI (SK-MEL-5 melanoma): > 100 µM
- TGI (LOX IMVI melanoma): > 100 µM
- TGI (NCI-H226 lung): > 100 µM
- TGI (T-47D breast): > 100 µM
- TGI (K-562 leukemia): > 100 µM
- TGI (HS 578T breast): > 100 µM
- TGI (A549 NSCLC): > 100 µM
- TGI (COLO 205 colon): > 100 µM
- TGI (A498 renal): > 100 µM
- TGI (SF-295 CNS): > 100 µM
- TGI (SK-MEL-28 melanoma): > 100 µM
- TGI (786-0 renal): > 100 µM
- GI50 (DU-145 prostate): > 100 µM
- TGI (DU-145 prostate): > 100 µM
- TGI (SNB-75 CNS): > 100 µM
- TGI (RPMI-8226 leukemia): > 100 µM
- TGI (HCT-15 colon): > 100 µM
- TGI (SR leukemia): > 100 µM
- TGI (NCI-H460 lung): > 100 µM
- TGI (MOLT-4 leukemia): > 100 µM
- TGI (OVCAR-4 ovarian): > 100 µM
- TGI (PC-3 prostate): > 100 µM
- TGI (TK-10 renal): > 100 µM
- TGI (NCI-H522 lung): > 100 µM
- TGI (HOP-92 NSCLC): > 100 µM

SMILES: O=C(c1ccc(-c2ccccc2)cc1)N(Cc1cccnc1)C(=S)N(Cc1cccnc1)C(=O)c1ccc(-c2ccccc2)cc1
- TGI (OVCAR-3 ovarian): > 100 µM
- TGI (SK-OV-3 ovarian): > 100 µM
- TGI (CAKI-1 renal): > 100 µM
- TGI (HL-60(TB) leukemia): > 100 µM
- TGI (SK-MEL-2 melanoma): > 100 µM
- TGI (BT-549 breast): > 100 µM
- TGI (UO-31 renal): > 100 µM
- TGI (SF-268 CNS): > 100 µM
- TGI (KM12 colon): > 100 µM
- TGI (HOP-62 NSCLC): > 100 µM
- TGI (M14 melanoma): > 100 µM
- TGI (HT29 colon): > 100 µM
- TGI (HCC-2998 colon): > 100 µM
- TGI (MALME-3M melanoma): > 100 µM
- TGI (CCRF-CEM leukemia): > 100 µM
- TGI (EKVX NSCLC): > 100 µM
- TGI (U251 CNS): > 100 µM
- TGI (MCF7 breast): > 100 µM
- TGI (NCI/ADR-RES ovarian): > 100 µM
- TGI (OVCAR-8 ovarian): > 100 µM
- TGI (SN12C renal): > 100 µM
- TGI (OVCAR-5 ovarian): > 100 µM
- TGI (UACC-257 melanoma): > 100 µM
- TGI (ACHN renal): > 100 µM
- TGI (MDA-N): > 100 µM
- TGI (MDA-MB-231 breast): > 100 µM
- TGI (SF-539 CNS): > 100 µM
- TGI (NCI-H23 lung): > 100 µM
- TGI (SW-620 colon): > 100 µM
- TGI (SNB-19 CNS): > 100 µM
- TGI (MDA-MB-435): > 100 µM
- TGI (HCT-116 colon): > 100 µM
- TGI (UACC-62 melanoma): > 100 µM
- TGI (SK-MEL-5 melanoma): > 100 µM
- TGI (LOX IMVI melanoma): > 100 µM
- TGI (NCI-H226 lung): > 100 µM
- TGI (K-562 leukemia): > 100 µM
- TGI (HS 578T breast): > 100 µM
- TGI (A549 NSCLC): > 100 µM
- TGI (COLO 205 colon): > 100 µM
- TGI (A498 renal): > 100 µM
- TGI (SF-295 CNS): > 100 µM
- TGI (SK-MEL-28 melanoma): > 100 µM
- TGI (786-0 renal): > 100 µM
- TGI (DU-145 prostate): > 100 µM
- TGI (RPMI-8226 leukemia): 72.4 µM
- TGI (HCT-15 colon): > 100 µM
- TGI (NCI-H460 lung): > 100 µM
- TGI (OVCAR-4 ovarian): > 100 µM
- TGI (PC-3 prostate): > 100 µM
- TGI (TK-10 renal): > 100 µM
- TGI (NCI-H522 lung): > 100 µM
- TGI (HOP-92 NSCLC): > 100 µM

SMILES: N=C(N)SC(c1ccccc1)c1ccccc1
- TGI (OVCAR-3 ovarian): 28.7 µM
- TGI (SK-OV-3 ovarian): > 100 µM
- TGI (CAKI-1 renal): 29.4 µM
- TGI (HL-60(TB) leukemia): 36.8 µM
- TGI (RXF 393 renal): 19.4 µM
- TGI (SK-MEL-2 melanoma): 32 µM
- TGI (BT-549 breast): 37.2 µM
- TGI (UO-31 renal): 23.2 µM
- TGI (SF-268 CNS): 78.5 µM
- TGI (KM12 colon): 32.9 µM
- TGI (HOP-62 NSCLC): 41.1 µM
- TGI (M14 melanoma): 23.7 µM
- TGI (HT29 colon): 34.4 µM
- TGI (HCC-2998 colon): 20.1 µM
- TGI (MALME-3M melanoma): 34.6 µM
- TGI (CCRF-CEM leukemia): 32.1 µM
- TGI (EKVX NSCLC): 33.6 µM
- TGI (U251 CNS): 29.4 µM
- TGI (MCF7 breast): 30 µM
- TGI (NCI/ADR-RES ovarian): 47 µM
- TGI (OVCAR-8 ovarian): 36.4 µM
- TGI (SN12C renal): 32.7 µM
- TGI (OVCAR-5 ovarian): 32.2 µM
- TGI (IGROV1 ovarian): 42.8 µM
- TGI (UACC-257 melanoma): 28.4 µM
- TGI (ACHN renal): 29.8 µM
- TGI (MDA-N): 26.5 µM
- TGI (MDA-MB-231 breast): 33.5 µM
- TGI (SF-539 CNS): 37.7 µM
- TGI (NCI-H23 lung): 28.3 µM
- TGI (SW-620 colon): 44.6 µM
- TGI (SNB-19 CNS): > 100 µM
- TGI (MDA-MB-435): 26.5 µM
- TGI (HCT-116 colon): 24.6 µM
- TGI (UACC-62 melanoma): 30.8 µM
- TGI (SK-MEL-5 melanoma): 32.2 µM
- TGI (LOX IMVI melanoma): 30.7 µM
- TGI (NCI-H226 lung): 60.9 µM
- TGI (T-47D breast): 22.6 µM
- TGI (K-562 leukemia): 85.3 µM
- TGI (HS 578T breast): > 100 µM
- TGI (A549 NSCLC): 95.2 µM
- TGI (COLO 205 colon): 47.1 µM
- TGI (A498 renal): 36.6 µM
- TGI (SF-295 CNS): 34.7 µM
- TGI (SK-MEL-28 melanoma): 18.6 µM
- TGI (786-0 renal): 25.2 µM
- TGI (DU-145 prostate): 25.4 µM
- TGI (RPMI-8226 leukemia): 31.7 µM
- TGI (HCT-15 colon): 40.7 µM
- TGI (SR leukemia): > 100 µM
- TGI (NCI-H460 lung): 37.1 µM
- TGI (MOLT-4 leukemia): 56.6 µM
- TGI (OVCAR-4 ovarian): 37.6 µM
- TGI (PC-3 prostate): 27.3 µM
- TGI (TK-10 renal): 28.2 µM
- TGI (NCI-H522 lung): 34.8 µM
- TGI (HOP-92 NSCLC): 22.9 µM
